Source: patent publication US5670331A, “Methods for optimizing fluoropyrimidine cancer therapy” (The University of Alabama Research Foundation, priority 1995, dated 1997)

What was measured:
Assay type in all cases: biochemical
Nucleoside Kinases [1] = experiment: Pyrimidine nucleoside kinase kinetics, human liver; details: substrate of nucleoside kinases; for Km / Vmax: 37° C.
Description: (§1) Enzyme activities were determined isotopically as the products, nucleotides, nucleosides, bases, β-amino-acid, etc. formed from their respective radiolabeled substrates, bases and/or nucleosides. All assays were run at 37° C. under conditions where activity was linear with time and enzyme concentration. […] Reactions were started by the addition of extract and stopped by boiling in a water bath for 2 minutes followed by freezing. Precipitated proteins were removed by centrifugation. A 10-25 μl aliquot of the supernatant fluid was spotted on the appropriate TLC plate and developed in the appropriate solvent system. Separated substrate and product(s) were counted on a TLC Analyzer (Berthold). The amounts of substrate and product(s) were calculated on a percentage basis.
(§2) The assay mixture contained 50 mM Tris-Cl, pH 7.4; 3-60 μM radiolabeled nucleoside ([2-^14 C]thymidine or [2-^14 C]5-fluoro-2'-deoxyuridine); 2.5 mM ATP; 5 mM creatine phosphate; 25 mM NaF; and 50 μl of sonicate to which was added a dash of phosphocreatine kinase in a final volume of 100 μl. After termination of the reaction and centrifugation, the supernatant was spotted on silica gel TLC plates. The plates were developed in a solution of chloroform:methanol:acetic acid (56:24:4, v/v/v) to separate the nucleosides which migrate with the front from the nucleotides which remain at the origin. When assaying patients, the assays are run at about 4.4 μM 5-fluoro-2'-deoxyuridine or about 6.4 μM thymidine.
(§3) The apparent Km and Vmax, as well as the enzyme efficiency values were calculated using computer programs based on Wilkinson-Cleland procedures. Because of the number of patients used, a two-tailed t-test was applied to determine the degree of significance of the difference in enzymatic activities between healthy volunteers, tolerant and intolerant subjects.

Nucleoside Phosphorylase [2] = experiment: Pyrimidine nucleoside phosphorylase kinetics, human liver; details: substrate of nucleoside phosphorylase; for Km / Vmax: 37° C.
Description: as §1
(§4) The assay mixture contained Buffer A, 33-600 μM radiolabeled nucleoside ([2-^14 C]uridine, [2-^14 C]thymidine or [2-^14 C]5-fluoro-2'-deoxyuridine), and 50 μl of sonicate in a final volume of 100 μl. After termination of the reaction and centrifugation, the nucleosides were separated from their respective nucleobases on silica gel TLC plate developed with chloroform:methanol:acetic acid (90:5:5 v/v/v). When assaying patients, the assay is run at about 226 μM 5-fluoro-2'-deoxyuridine, about 169 μM thymidine or about 114 μM uridine.
as §3

Nucleoside Kinases [3] = experiment: Pyrimidine nucleoside kinase kinetics, human mononuclear cell sonicate; details: substrate of nucleoside kinases, human mononuclear cells; for Km / Vmax: 37° C.
Description: (§5) All procedures are carried out at room temperature, using solutions preheated to 37° C. Blood samples were withdrawn in aliquots of 30 ml into 60 ml syringes, containing 5 ml heparin (1,000 Units/ml). Blood and heparin were immediately mixed by inverting the syringes. The mixture was layered onto HISTOPAQUE-1077 (15 ml), in a 50 ml conical centrifuge tube and centrifuged for 30 minutes at 400 ×g. The upper layer was then aspirated with a Pasteur pipet and discarded, while the opaque interface containing the mononuclear cells was aspirated into a fresh conical tube containing 10 ml growth medium (RPMI-1640 medium: 5% FBS:0.050M HEPES, pH 7.4) and mixed by inverting the tubes. The cells were pelleted by centrifugation for 10 minutes at 250 ×g then resuspended into fresh growth medium by gentle aspiration with a Pasteur pipet. After two more washing, the cells were suspended into 10 ml fresh growth media.
(§6) The following buffers were used: Buffer A (20 mM potassium phosphate, pH 8.0) and Buffer B (50 mM Tris-Cl, pH 7.5). Mononuclear cells were washed 2-3 times as described above except that buffer B was substituted for the growth medium. The cells were then sonicated (1:2 v/v) in buffer B using a sonic dismembrator (Fisher model 300). The sonicate was then used as the enzyme source.
as §1, §2, §3

Nucleoside Phosphorylase [4] = experiment: Pyrimidine nucleoside phosphorylase kinetics, human mononuclear cell sonicate; details: substrate of nucleoside phosphorylase, human mononuclear cells; for Km / Vmax: 37° C.
Description: as §5, §6, §1, §4, §3

SMILES	Vmax /Km (Nucleoside Kinases [1]) [min^-1 × 10^3]	Km (Nucleoside Kinases [1]) [µM]	Vmax (Nucleoside Kinases [1]) [nmol/min/mg]	Vmax /Km (Nucleoside Phosphorylase [2]) [min^-1 × 10^3]	Km (Nucleoside Phosphorylase [2]) [µM]	Vmax (Nucleoside Phosphorylase [2]) [nmol/min/mg]	Vmax /Km (Nucleoside Kinases [3]) [min^-1 × 10^3]	Km (Nucleoside Kinases [3]) [µM]	Vmax (Nucleoside Kinases [3]) [nmol/min/mg]	Vmax /Km (Nucleoside Phosphorylase [4]) [min^-1 × 10^3]	Km (Nucleoside Phosphorylase [4]) [µM]	Vmax (Nucleoside Phosphorylase [4]) [nmol/min/mg]
O=c1[nH]c(=O)n([C@H]2C[C@H](O)[C@@H](CO)O2)cc1F [5-Fluoro-2'-deoxyuridine, 5-fluoro-2'-deoxyuridine]	5.17	3.1	0.016	111.90	215	24.041	2.89	4.39	0.013	6.22	226	1.404
O=c1[nH]c(=O)n([C@@H]2O[C@H](CO)[C@@H](O)[C@H]2O)cc1F [5-Fluorouridine]	0.50	25.1	0.013	8.62	286	2.470	–	–	–	–	–	–
Cc1cn([C@H]2C[C@H](O)[C@@H](CO)O2)c(=O)[nH]c1=O [Thymidine, thymidine]	4.00	6.41	0.025	76.15	256	19.471	2.40	6.45	0.015	6.34	168	1.068
O=c1ccn([C@@H]2O[C@H](CO)[C@@H](O)[C@H]2O)c(=O)[nH]1 [Uridine, uridine]	0.55	55.8	0.031	172.00	99.1	1.703	7.00	40.3	0.027	3.79	114	0.431
